From patent publication US9670204B2, “Compounds and pharmaceutical compositions thereof for the treatment of inflammatory disorders” (Galapagos NV, priority 2013, dated 2017) come the findings set out here.

By pIC50 is commonly meant the IC50 on a negative log10 scale, so that one unit is a factor of ten.

The test addresses hENPP2 (UniProtKB/SwissProt Q13822) (Homo sapiens (Human), UniProt Q13822). Description: hENPP2 biochemical assay, LPC as substrate. The conditions noted are these: LPC (palmitoyl 16:0) as substrate. Here is the method: The principle of the assay consists in quantifying the released choline with an enzymatic method using choline oxidase and peroxidase. Choline oxydation by choline oxydase releases betaine and peroxide. The latter is quantified in presence of HRP that converts the peroxide detection agent TOOS and 4-aminoantipyrine into quinoneimine dye. The appearance of quinoneimine dye is measured spectrophotometrically at 555 nm and is proportional to the amount of choline released by ENPP2. Inhibition of ENPP2 will result in a decrease of the signal.
Compound IC50 values are determined in a hENPP2 (UniProtKB/SwissProt Sequence ref Q13822) biochemical assay using LPC as substrate.
The enzyme is diluted in 50 mM Tris-HCl pH 8.5, 500 mM NaCl, 5 mM KCl, 10 mM CaCl2, 0.1% fatty acid free BSA in a total volume of 10 μL. the reaction is started by the addition of 10 μL of 150 μM LPC (palmitoyl 16:0) diluted in the same buffer as described above and the mixture is incubated at 37° C. for 30 min. The reaction is terminated and choline quantified by the addition of a 25 μL of a mixture containing 0.6 U/mL of choline oxidase, 0.6 U/mL of peroxydase, 1.8 mM TOOS, 1.2 mM amino-antipyrine, 20 mM EGTA (stop-developer solution) diluted in the buffer described above. […] is read on the Envision after an incubation of 30 min at room temperature (Excitation 555 nm, excitation light=70%).

The structures appear in SMILES notation. pIC50: −log10 of the molar value. Some results are limits rather than exact numbers.

The compound `CCc1nc2ccc(N3CCN(CC(=O)N4CC(F)(F)C4)CC3)cn2c1N(C)c1nc(-c2ccc(F)cc2)cs1` [Compound 29, 1-(3,3-difluoroazetidin-1-yl)-2-(4-(2-ethyl-3-((4-(4-fluorophenyl)thiazol-2-yl)(methyl)amino)-imidazo[1,2-a]pyridin-6-yl)piperazin-1-yl)ethanone] gave a pIC50 of 6.30 to 7.00.
Under `CCc1nc2ccc(N3CCN(C(=O)C4CCN(C(=O)OC(C)(C)C)C4)CC3)cn2c1N(C)c1nc(-c2ccc(F)cc2)cs1` (centres unmarked) [Compound 45, tert-butyl 3-(4-(2-ethyl-3-((4-(4-fluorophenyl)thiazol-2-yl)(methyl)amino)imidazo[1,2-a]pyridin-6-yl)piperazine-1-carbonyl)pyrrolidine-1-carboxylate] stands under 6.00; under `CCc1nc2ccc(C3=CCN(S(C)(=O)=O)CC3)cn2c1N(C)c1nc(-c2ccc(C(C)(C)C)cc2)cs1` [Compound 70, 4-(4-tert-butylphenyl)-N-(2-ethyl-6-(1-(methylsulfonyl)-1,2,3,6-tetrahydropyridin-4-yl)imidazo[1,2-a]pyridin-3-yl)-N-methylthiazol-2-amine], under 6.00.
In turn, `CCOC(=O)C(C)N1CCN(c2ccc3nc(CC)c(N(C)c4nc(-c5ccc(F)cc5)cs4)n3c2)CC1` (centres unmarked) [Compound 37, ethyl 2-(4-(2-ethyl-3-((4-(4-fluorophenyl)thiazol-2-yl)(methyl)amino)imidazo[1,2-a]pyridin-6-yl)piperazin-1-yl)propionoate] showed a negative logarithm of the IC50 (pIC50) of under 6.00.
`CCc1nc2ccc(N3CCN(CC(=O)N4CCOCC4)CC3)cn2c1N(C)c1nc(-c2ccc(F)cc2)cs1` [Compound 32, 2-(4-(2-ethyl-3-((4-(4-fluorophenyl)thiazol-2-yl)(methyl)amino)imidazo[1,2-a]pyridin-6-yl)piperazin-1-yl)-1-morpholinoethanone] gave a negative logarithm of the IC50 (pIC50) of 6.30 to 7.00.
`CCc1nc2ccc(N3CCNCC3)cn2c1N(C)c1nc(-c2ccc(F)cc2C#N)c(C)s1` [Compound 161, 2-(2-((2-ethyl-6-(piperazin-1-yl)imidazo[1,2-a]pyridin-3-yl)(methyl)amino)-5-methylthiazol-4-yl)-5-fluorobenzonitrile] showed a pIC50 of under 6.00.
Under `CCc1nc2ccc(N3CC(NCC(=O)N4CC(O)C4)C3)cn2c1N(C)c1nc(-c2ccc(F)cc2)cs1` [Compound 178, 2-(1-(2-ethyl-3-((4-(4-fluorophenyl)thiazol-2-yl)(methyl)amino)imidazo[1,2-a]pyridin-6-yl)azetidin-3-ylamino)-1-(3-hydroxyazetidin-1-yl)ethanone] stands 6.30 to 7.00.
Under `CCc1nc2ccc(C3CCN(C(=O)CCNC)CC3)cn2c1N(C)c1nc(-c2ccc(F)cc2)cs1` [Compound 132, 1-(4-(2-ethyl-3-((4-(4-fluorophenyl)thiazol-2-yl)(methyl)amino)imidazo[1,2-a]pyridin-6-yl)piperidin-1-yl)-3-(methylamino)propan-1-one] stands under 6.00; under `CCc1nc2ccc(N3CCN(CC(=O)N4CC(F)C4)CC3)cn2c1N(C)c1nc(-c2ccc(F)cc2)cs1` [Compound 28, 2-(4-(2-ethyl-3-((4-(4-fluorophenyl)thiazol-2-yl)(methyl)amino)imidazo[1,2-a]pyridin-6-yl)piperazin-1-yl)-1-(3-fluoroazetidin-1-yl)ethanone], 6.30 to 7.00.
The compound `CCc1nc2ccc(C3CCN(C(=O)CNC)CC3)cn2c1N(C)c1nc(-c2ccc(F)cc2)cs1` [Compound 127, 1-(4-(2-ethyl-3-((4-(4-fluorophenyl)thiazol-2-yl)(methyl)amino)imidazo[1,2-a]pyridin-6-yl)piperidin-1-yl)-2-(methylamino)ethanone] had a pIC50 of 6.00 to 6.30.
Under `CCc1nc2ccc(C3CCN(CC(=O)N4CC(CO)C4)CC3)cn2c1N(C)c1nc(-c2ccc(F)cc2)c(CO)s1` [Compound 152] stands 6.00 to 6.30; under `CCc1nc2ccc(C3=CCN(S(C)(=O)=O)CC3)cn2c1N(C)c1nc(-c2ccc(F)c(F)c2)cs1` [Compound 73, 4-(3,4-difluorophenyl)-N-(2-ethyl-6-(1-(methylsulfonyl)-1,2,3,6-tetrahydropyridin-4-yl)imidazo[1,2-a]pyridin-3-yl)-N-methylthiazol-2-amine], under 6.00.
In the case of `CCc1nc2ccc(C3CCN(C[C@@H]4CNC(=O)O4)CC3)cn2c1N(C)c1nc(-c2ccc(F)cc2)cs1` [Compound 197, (S)-5-((4-(2-ethyl-3-((4-(4-fluorophenyl)thiazol-2-yl)(methyl)amino)imidazo[1,2-a]pyridin-6-yl)piperidin-1-yl)methyl)oxazolidin-2-one] it was under 6.00; in that of `CCc1nc2ccc(C3CCN(CC(=O)N(C)CCO)CC3)cn2c1N(C)c1nc(-c2ccc(F)cc2)cs1` [Compound 119, 2-(4-(2-ethyl-3-((4-(4-fluorophenyl)thiazol-2-yl)(methyl)amino)imidazo[1,2-a]pyridin-6-yl)piperidin-1-yl)-N-(2-hydroxyethyl)-N-methylacetamide], 6.00 to 6.30.
Under `CCc1nc2ccc(N3CC(N)C3)cn2c1N(C)c1nc(-c2ccc(F)cc2)cs1` [Compound 177, [6-(3-Amino-azetidin-1-yl)-2-ethyl-imidazo[1,2-a]pyridin-3-yl]-[4-(4-fluoro-phenyl)-thiazol-2-yl]-methyl-amine] stands 6.00 to 6.30; under `CCc1nc2ccc(C3CCN(S(C)(=O)=O)CC3)cn2c1N(C)c1nc(-c2ccc(C(F)(F)F)cc2)cs1` [Compound 84, N-(2-ethyl-6-(1-(methylsulfonyl)piperidin-4-yl)imidazo [1,2-a]pyridin-3-yl)-N-methyl-4-(4-(trifluoromethyl)phenyl) thiazol-2-amine], under 6.00; under `CCc1nc2ccc(N3CCN(C(=O)C4(N)CC4)CC3)cn2c1N(C)c1nc(-c2ccc(F)cc2)cs1` [Compound 202, (1-aminocyclopropyl)(4-(2-ethyl-3-((4-(4-fluorophenyl)thiazol-2-yl)(methyl)amino)imidazo[1,2-a]pyridin-6-yl)piperazin-1-yl)methanone], under 6.00.
`CCc1nc2ccc(N3CCN(CC(N)=O)CC3)cn2c1N(C)c1nc(-c2ccc(F)cc2)cs1` [Compound 33, 2-(4-(2-ethyl-3-((4-(4-fluorophenyl)thiazol-2-yl)(methyl)amino)imidazo[1,2-a]pyridin-6-yl)piperazin-1-yl)acetamide] gave a pIC50 of 6.00 to 6.30.
In the case of `CCc1nc2ccc(C3CCN(S(C)(=O)=O)CC3)cn2c1N(C)c1nc(-c2ccc(F)cc2C#N)c(C)s1` [Compound 97, 2-(2-((2-ethyl-6-(1-(methylsulfonyl)piperidin-4-yl)imidazo [1,2-a]pyridin-3-yl)(methyl)amino)-5-methylthiazol-4-yl)-5-fluorobenzonitrile] it was 6.30 to 7.00.
In the case of `CCc1nc2ccc(C3CCN(C(=O)CCN(C)C)CC3)cn2c1N(C)c1nc(-c2ccc(F)cc2)cs1` [Compound 130, 3-(dimethylamino)-1-(4-(2-ethyl-3-((4-(4-fluorophenyl)thiazol-2-yl)(methyl)amino)imidazo[1,2-a]pyridin-6-yl)piperidin-1-yl)propan-1-one] it was 6.30 to 7.00.
The compound `CCc1nc2ccc(C3CCN(S(C)(=O)=O)CC3)cn2c1N(C)c1nc(-c2ccc(OC(F)(F)F)cc2)cs1` [Compound 85, N-(2-ethyl-6-(1-(methylsulfonyl)piperidin-4-yl)imidazo [1,2-a]pyridin-3-yl)-N-methyl-4-(4-(trifluoromethoxy)phenyl)thiazol-2-amine] had a negative-log IC50 (pIC50) of under 6.00.
In the case of `CCc1nc2ccc(N3CCN(C(=O)C4CCCN4C(=O)OC(C)(C)C)CC3)cn2c1N(C)c1nc(-c2ccc(F)cc2)cs1` (centres unmarked) [Compound 44, tert-butyl 2-(4-(2-ethyl-3-((4-(4-fluorophenyl)thiazol-2-yl)(methyl)amino)imidazo[1,2-a]pyridin-6-yl)piperazine-1-carbonyl)pyrrolidine-1-carboxylate] it was under 6.00; in that of `CCc1nc2ccc(C3CCN(C[C@H]4CNC(=O)O4)CC3)cn2c1N(C)c1nc(-c2ccc(F)cc2)cs1` [Compound 196, (R)-5-((4-(2-ethyl-3-((4-(4-fluorophenyl)thiazol-2-yl)(methyl)amino)imidazo[1,2-a]pyridin-6-yl)piperidin-1-yl)methyl)oxazolidin-2-one], under 6.00.
`CCc1nc2ccc(C3CCN(CC4CN(C)C(=O)O4)CC3)cn2c1N(C)c1nc(-c2ccc(F)cc2)cs1` (centres unmarked) [Compound 195, 5-((4-(2-ethyl-3-((4-(4-fluorophenyl)thiazol-2-yl)(methyl)amino)imidazo[1,2-a]pyridin-6-yl)piperidin-1-yl)methyl)-3-methyloxazolidin-2-one] had a negative-log IC50 (pIC50) of under 6.00.
Under `[2H]C([2H])([2H])N(c1nc(-c2ccc(F)cc2)cs1)c1c(CC)nc2ccc(C3CCN(S(C)(=O)=O)CC3)cn12` [Compound 102, 4-(4-fluorophenyl)-N-(2-ethyl-6-(1-(methylsulfonyl)piperidin-4-yl)imidazo [1,2-a]pyridin-3-yl)-N-(d3-methyl)thiazol-2-amine] stands under 6.00.
In the case of `CCc1nc2ccc(C3CCN(S(C)(=O)=O)CC3)cn2c1N(C)c1nc(-c2ccc(F)cc2CO)cs1` [Compound 107, (2-(2-((2-ethyl-6-(1-(methylsulfonyl)piperidin-4-yl)imidazo[1,2-a]pyridin-3-yl)(methyl)amino)thiazol-4-yl)-5-fluorophenyl)methanol] it was 6.00 to 6.30.
